In patent publication US9493464B2, “Wee1 degradation inhibitors” (The Scripps Research Institute, priority 2012, dated 2016):

These compounds were tested on K328M-Wee1-luciferase (assay: Wee1-luciferase assay (stabilization of K328M-Wee1-luciferase)). Conditions: HeLa cells; result in words.
Type: cell-based
Excerpt: Steady-state level of K328M-Wee1-Luciferase (K328M-Wee1-Luc) was divided by Luciferase level (Luc) and plotted.
Similar assays have previously been described; PubChem AID 1807.

Row | stabilization of K328M-Wee1-luciferase | Compound
1 | does not stabilize K328M-Wee1-luciferase | CCN(CC)CCNC(=O)c1c(C)[nH]c(/C=C2\C(=O)Nc3ccc(F)cc32)c1C [Sutent, reference compound]

Same assay, conditions: at 250 nM, reported relative to SR-1277 = 100%

Row | Compound | % Inhibition, Wee1 Degradation
2 | C[C@@H](Nc1nc(NCc2nc3ccccc3[nH]2)c2ncn(-c3ccsc3)c2n1)c1ccccc1 [SR-1289] | 9.2%
3 | Nc1cccc2[nH]c(CNc3nc(N4CCOCC4)nc4c3ncn4-c3ccsc3)nc12 [SR-1287] | 15.6%
4 | CC(C)n1cnc2c(NCc3nc4c(C(=O)O)cccc4[nH]3)nc(N3CCOCC3)nc21 [SR-1402] | 0.0%
5 | CCOC(=O)c1cccc2[nH]c(CNc3nc(N4CCOCC4)nc4c3ncn4C(C)C)nc12 [SR-1283] | 17.0%
6 | OCCN1CCN(c2nc(NCc3nc4ccccc4[nH]3)c3ncn(-c4ccsc4)c3n2)CC1 [SR-1296] | 10.0%
7 | Nc1ccc2[nH]c(CNc3nc(N4CCOCC4)nc4c3ncn4-c3ccsc3)nc2c1 [SR-1286] | 8.3%
8 | c1ccc2[nH]c(CNc3nc(N4CCCC4)nc4c3ncn4-c3ccsc3)nc2c1 [SR-1293] | 9.9%
9 | c1ccc2[nH]c(CNc3nc(N4CCCCC4)nc4c3ncn4-c3ccsc3)nc2c1 [SR-1288] | 10.5%
10 | CC(C)n1cnc2c(NCc3nc4ccccc4[nH]3)nc(Nc3cccnc3)nc21 [SR-655534] | 3.4%
11 | O=C(NC1CC1)c1ccc(-c2nc(NCc3nc4ccccc4[nH]3)c3ncn(-c4ccsc4)c3n2)cc1 [SR-658807] | 3.6%
12 | O=C(O)c1cccc2[nH]c(CNc3nc(N4CCOCC4)nc4c3ncn4-c3ccsc3)nc12 [SR-1401] | 0.0%
13 | c1ccc(-n2cnc3c(NCc4nc5ccccc5[nH]4)nc(N4CCOCC4)nc32)cc1 [SR-649967] | 4.0%
14 | CC(C)n1cnc2c(NCc3nc4ccccc4[nH]3)nc(Nc3ccncn3)nc21 [SR-656428] | 4.0%
15 | c1ccc2c(c1)CCN2c1nc(NCc2nc3ccccc3[nH]2)c2ncn(-c3ccsc3)c2n1 [SR-1297] | 7.9%
16 | c1cnc2ccc3[nH]c(CNc4nc(N5CCOCC5)nc5c4ncn5-c4ccsc4)nc3c2c1 [SR-1281] | 22.0%
17 | c1ccc2[nH]c(CNc3nc(Nc4cnccn4)nc4c3ncn4-c3ccsc3)nc2c1 [SR-660983] | 2.9%
18 | NCCN1CCN(c2nc(NCc3nc4ccccc4[nH]3)c3ncn(-c4ccsc4)c3n2)CC1 [SR-1299] | 8.6%
19 | CC(C)n1cnc2c(NCc3nc4ccccc4[nH]3)nc(Nc3cnccn3)nc21 [SR-660754] | 5.3%
20 | c1ccc(N2CCN(c3nc(NCc4nc5ccccc5[nH]4)c4ncn(-c5ccsc5)c4n3)CC2)nc1 [SR-648378] | 4.0%
21 | C=CCN(CC=C)c1nc(NCc2nc3ccccc3[nH]2)c2ncn(-c3ccsc3)c2n1 [SR-1295] | 8.2%
22 | c1ccc2[nH]c(CNc3nc(N4CCSCC4)nc4c3ncn4-c3ccsc3)nc2c1 [SR-1291] | 11.4%
23 | CC(C)n1cnc2c(NCc3nc4ccccc4[nH]3)nc(N3CCOCC3)nc21 [SR-648126] | 4.1%
24 | c1ccc2[nH]c(CNc3nc(NCCN4CCOCC4)nc4c3ncn4-c3ccsc3)nc2c1 [SR-1298] | 8.1%

Same assay, conditions: read-out: Wee1 Stabilization

Row | EC50 | Compound
25 | 3800 nM | CC(C)n1cnc2c(NCc3nc4ccccc4[nH]3)nc(Nc3cccnc3)nc21 [SR-655534]
26 | 4100 nM | O=C(NC1CC1)c1ccc(-c2nc(NCc3nc4ccccc4[nH]3)c3ncn(-c4ccsc4)c3n2)cc1 [SR-658807]
27 | 4300 nM | c1ccc(-n2cnc3c(NCc4nc5ccccc5[nH]4)nc(N4CCOCC4)nc32)cc1 [SR-649967]
28 | 4400 nM | CC(C)n1cnc2c(NCc3nc4ccccc4[nH]3)nc(Nc3ccncn3)nc21 [SR-656428]
29 | 3800 nM | c1ccc2[nH]c(CNc3nc(Nc4cnccn4)nc4c3ncn4-c3ccsc3)nc2c1 [SR-660983]
30 | 4000 nM | CC(C)n1cnc2c(NCc3nc4ccccc4[nH]3)nc(Nc3cnccn3)nc21 [SR-660754]
31 | 4300 nM | c1ccc(N2CCN(c3nc(NCc4nc5ccccc5[nH]4)c4ncn(-c5ccsc5)c4n3)CC2)nc1 [SR-648378]
32 | 5300 nM | CC(C)n1cnc2c(NCc3nc4ccccc4[nH]3)nc(N3CCOCC3)nc21 [SR-648126]

These compounds were tested against T1, CK1δ (Homo sapiens, UniProt P48730) (assay: In vitro kinase assay, CK1d, 32P-ATP filter binding (Reaction Biology Corporation)). Conditions: footnote a: determined by Reaction Biology Corporation; read-out: IC50 CK1d.
T1 sequence (P48730 whole entry): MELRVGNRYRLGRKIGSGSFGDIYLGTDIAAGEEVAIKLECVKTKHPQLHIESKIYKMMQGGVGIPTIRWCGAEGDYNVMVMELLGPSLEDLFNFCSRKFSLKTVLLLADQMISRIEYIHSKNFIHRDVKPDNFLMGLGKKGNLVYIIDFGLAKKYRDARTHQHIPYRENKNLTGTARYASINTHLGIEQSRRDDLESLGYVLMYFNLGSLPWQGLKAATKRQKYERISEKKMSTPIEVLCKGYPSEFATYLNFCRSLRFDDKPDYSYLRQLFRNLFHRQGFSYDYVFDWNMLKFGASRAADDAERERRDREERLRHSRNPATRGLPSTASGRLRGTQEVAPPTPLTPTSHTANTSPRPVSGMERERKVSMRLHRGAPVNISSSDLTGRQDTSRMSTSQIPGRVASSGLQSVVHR
Type: biochemical
Description: Compounds were tested in 10-dose IC50 mode with 3-fold serial dilution starting at 50 μM. […] Reactions were carried out at 10 μM ATP. Average and standard deviations of reactions carried out in triplicate are shown.
(§1) In vitro kinase assay to detect CK1 or FLT3 activity: CK1 and FLT3 assays as well as complete kinase profile of 296 kinases was performed by Reaction Biology Corporation. For FLT3 20 μM final Abltide was used, sequence: [[…]]. For CK1 (all isoforms) 20 μM CK1 tide was used, sequence: [KRRRAL[pS]VASLPGL] in a standard kinase assay with ^32P-ATP and purified kinase. Incorporation of ^32P-ATP into the peptide was measured after a filter-binding assay. In-house CK1d inhibition assays were performed using a standard homogenous time-resolved fluorescence resonance energy transfer (TR-FRET) format in 50 mM Hepes, pH 7.0, 2.5 mM MgCl2, 0.1 mg/ml bovine serum albumin, 1 mM DL-dithiothreitol, 0.01% Triton X-100 (all from Sigma-Aldrich). Briefly, the CK1δ substrate (DEKTDDE, containing CK1 consensus sequence; 4 μL of a 500 nM stock solution) is labeled with a small Ulight acceptor dye (PerkinElmer). In the presence of 10 μL of 10 nM CK1δ, the Ulight peptide is phosphorylated at a single amino acid that is specifically recognized by a europium chelate (Eu)-labeled phosphospecific antibody. Assays were performed in the presence of 2 μL of compound at different (measured) concentrations, and reactions were stopped by adding 10 μL of 4 nM Eu-anti-p-Topo-IIa (PerkinElmer) in Lance Detection Buffer (Perkin Elmer). Upon excitation of the Eu-labeled antibody, energy is transferred to the acceptor dye resulting in the emission of detected light at 665 nm.

Row | IC50 | Compound
33 | 1130 nM | O=[N+]([O-])c1cccc2[nH]c(CNc3nc(N4CCOCC4)nc4c3ncn4-c3ccc(F)cc3)nc12 [SR-2362]

What follows are compounds tested against T1, CK1δ (assay: In-house CK1d inhibition assay (TR-FRET)). Conditions: footnote b: in-house CK1d assay.
Type: biochemical
Description: as §1

Row | Compound | IC50
34 | O=[N+]([O-])c1cccc2[nH]c(CNc3nc(N4CCOCC4)nc4c3ncn4-c3cccc(F)c3)nc12 [SR-2364] | 46 nM
35 | CCOC(=O)c1ccc2[nH]c(CNc3nc(N4CCNCC4)nc4c3ncn4-c3ccoc3)nc2c1 [SR-2916] | 687 nM
36 | NC1CCN(c2nc(NCc3nc4cc(Cl)ccc4[nH]3)c3ncn(-c4ccsc4)c3n2)CC1 [SR-2875] | 119 nM
37 | CC1CN(c2nc(NCc3nc4ccccc4[nH]3)c3ncn(-c4ccsc4)c3n2)CCN1 (stereo not drawn) [SR-2915] | 199 nM
38 | Clc1ccc2[nH]c(CNc3nc(N4CCNCC4)nc4c3ncn4-c3ccsc3)nc2c1 [SR-2876] | 51 nM
39 | O=[N+]([O-])c1cccc2[nH]c(CNc3nc(N4CCOCC4)nc4c3ncn4-c3ccccc3F)nc12 [SR-2366] | 114 nM
40 | Clc1ccc2[nH]c(CNc3nc(N4CCCNCC4)nc4c3ncn4-c3ccoc3)nc2c1 [SR-2917] | 120 nM
41 | COC(=O)c1cccc2[nH]c(CNc3nc(N4CCNCC4)nc4c3ncn4-c3ccoc3)nc12 [SR-2927] | 33 nM
42 | CN1CCN(c2nc(NCc3nc4cc(Cl)ccc4[nH]3)c3ncn(-c4cccc(F)c4)c3n2)CC1 [SR-2870] | 828 nM
43 | Fc1cccc(-n2cnc3c(NCc4nc5ccccc5[nH]4)nc(N4CCOCC4)nc32)c1 [SR-2931] | 101 nM
44 | O=[N+]([O-])c1cccc2[nH]c(CNc3nc(N4CCOCC4)nc4c3ncn4-c3cc(F)cc(F)c3)nc12 [SR-2368] | 75 nM
45 | CN1CCN(c2nc(NCc3nc4cc(C(F)(F)F)ccc4[nH]3)c3ncn(-c4ccoc4)c3n2)CC1 [SR-2867] | 199 nM
46 | CN1CCN(c2nc(NCc3nc4cc(F)ccc4[nH]3)c3ncn(-c4cccc(F)c4)c3n2)CC1 [SR-2871] | 190 nM
47 | c1ccc2[nH]c(CNc3nc(N4CCNCC4)nc4c3ncn4-c3ccoc3)nc2c1 [SR-2914] | 116 nM
48 | CN(C)C(=O)c1cccc2[nH]c(CNc3nc(N4CCNCC4)nc4c3ncn4-c3ccoc3)nc12 [SR-2928] | 107 nM

The next lines start with the values.

Row | IC50 | Compound
49 | 884 nM | Fc1cccc(-n2cnc3c(NCc4nc5ccccc5[nH]4)nc(N4CCCC4)nc32)c1 [SR-3006]
50 | 2410 nM | CC(C)N1CCN(c2nc(NCc3nc4ccccc4[nH]3)c3ncn(-c4cccc(F)c4)c3n2)CC1 [SR-2949]
51 | 37 nM | Fc1cccc(-n2cnc3c(NCc4nc5c(F)cccc5[nH]4)nc(N4CCOCC4)nc32)c1 [SR-3086]
52 | 589 nM | CCN1CCN(c2nc(NCc3nc4ccccc4[nH]3)c3ncn(-c4cccc(F)c4)c3n2)CC1 [SR-2948]
53 | 150 nM | NC1CCN(c2nc(NCc3nc4cc(Cl)ccc4[nH]3)c3ncn(-c4cccc(F)c4)c3n2)C1 (stereo not drawn) [SR-3098]
54 | 199 nM | Fc1cccc(-n2cnc3c(NCc4ccc5c(c4)OCO5)nc(N4CCOCC4)nc32)c1 [SR-3061]
55 | > 10000 nM | Fc1cccc(-n2cnc3c(NCc4nc5ccccc5[nH]4)nc(N4CCCCC4)nc32)c1 [SR-3005]
56 | 360 nM | NC1CN(c2nc(NCc3nc4cc(Cl)ccc4[nH]3)c3ncn(-c4cccc(F)c4)c3n2)C1 [SR-3095]
57 | > 10000 nM | c1ccc(-c2cccc(-n3cnc4c(NCc5nc6ccccc6[nH]5)nc(N5CCOCC5)nc43)c2)cc1 [SR-3048]
58 | 306 nM | CN1CCN(c2nc(NCc3nc4ccccc4[nH]3)c3ncn(-c4cccc(F)c4)c3n2)CC1 [SR-2932]
59 | 153 nM | Fc1cccc(-n2cnc3c(NCc4nc5c(Cl)cccc5[nH]4)nc(N4CCOCC4)nc32)c1 [SR-2950]
60 | 382 nM | NC1CN(c2nc(NCc3nc4ccccc4[nH]3)c3ncn(-c4cccc(F)c4)c3n2)C1 [SR-3084]
61 | 62 nM | Fc1cccc(-n2cnc3c(NCc4nc5cc(F)ccc5[nH]4)nc(N4CCNCC4)nc32)c1 [SR-3163]
62 | 482 nM | OC1CN(c2nc(NCc3nc4ccccc4[nH]3)c3ncn(-c4cccc(F)c4)c3n2)C1 [SR-3087]
63 | 666 nM | Fc1cccc(-n2cnc3c(NCc4cccc5ccccc45)nc(N4CCOCC4)nc32)c1 [SR-3004]
64 | 830 nM | C[C@@H]1CN(c2nc(NCc3nc4cc(Cl)ccc4[nH]3)c3ncn(-c4cccc(F)c4)c3n2)C[C@H](C)O1 [SR-3096]
65 | > 10000 nM | Fc1cccc(-n2cnc3c(NCc4nc5ccccc5[nH]4)nc(N4CCC(F)(F)CC4)nc32)c1 [SR-3060]
66 | 88 nM | Fc1cccc(-n2cnc3c(NCc4nc5cc(F)ccc5[nH]4)nc(N4CCOCC4)nc32)c1 [SR-3162]
